Like-named read-outs stand apart in the source and are kept apart here.
Experiments:
FGFR1 (h) = FGFR1 (h) (Homo sapiens, UniProt P11362); assay: FGFR1 (enzymatic assay), TR-FRET; type: biochemical; conditions: read-out: FGFR 1 pIC50 (converted)
FGFR2 (h) = FGFR2 (h) (Homo sapiens, UniProt P21802); assay: FGFR2 (enzymatic assay), TR-FRET; type: biochemical; conditions: enzymatic assay, read-out: FGFR 2 pIC50 (converted)
In short: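 Human FGFR2 (150 ng/ml) was incubated with 500 nM Btn-Flt3 substrate and 0.4 μM ATP in 50 mM HEPES pH 7.5, 6 mM MnCl2, 1 mM DTT, 0.1 mM Na3VO4, 0.01% Triton-X-100. Compound was present at 1% DMSO final.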

KDR (h) = KDR (h) (Homo sapiens, UniProt P35968); assay: KDR (VEGFR2) (enzymatic assay), TR-FRET; type: biochemical; conditions: read-out: VEGFR 2 (KDR) pIC50 (converted)
In short: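 Human KDR (150 ng/ml) was reacted with 500 nM Btn-Flt3 and 3 μM ATP in 50 mM HEPES pH 7.5, 6 mM MnCl2, 1 mM DTT, 0.1 mM Na3VO4, 0.01% Triton X-100, 1% DMSO, for 120 min at room temperature. Phosphorylation detected by TR-FRET (Eu-anti-P-Tyr/SA-XL665, 60 min), read in RFU.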

[1] = test system: Ba/F3-FGFR3-transfected cells; assay: Ba/F3-FGFR3 (plus IL3) cellular proliferation assay, counterscreen with 10 ng/ml murine IL3; type: cell-based; conditions: plus IL3 (10 ng/ml murine IL3, counterscreen); read-out: BAF3-FGFR3 (PLUS IL3) pIC50 (converted)
In short: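 With or without 10 ng/ml murine IL3, FGFR3-dependent Ba/F3 cells were treated 24 h with compound, then viability was gauged by Alamar Blue fluorescence after 4 h (ex 540/em 590 nm).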

[2] = molecular target: T1, Ba/F3-KDR-transfected cells (Homo sapiens, UniProt P35968); assay: Ba/F3-KDR (minus IL3) cellular proliferation assay, Alamar Blue; type: cell-based
T1 construct: BAF3-KDR (MIN IL3) pIC50; other: minus IL3
In short: (§1)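 Ba/F3-KDR-transfected cells, 20000 per well in phenol red free RPMI-1640 with 10% FBS, exposed to compound 24 hours at 37° C, 5% CO2; Alamar Blue then added for 4 hours and fluorescence read (ex. 540 nm, em. 590 nm). Plus-IL3 counterscreen run identically with 10 ng/ml murine IL3.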

[3] = test system: Ba/F3-KDR-transfected cells; assay: Ba/F3-KDR (plus IL3) cellular proliferation assay, counterscreen with 10 ng/ml murine IL3; type: cell-based; conditions: plus IL3 (10 ng/ml murine IL3, counterscreen); read-out: BAF3-KDR (PLUS IL3) pIC50 (converted)
In short: as §1

[4] = molecular target: Ba/F3-FGFR4-transfected cells (Homo sapiens, UniProt P22455); assay: Ba/F3-FGFR4 cellular proliferation assay, Alamar Blue; type: cell-based
In short: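 Ba/F3-FGFR4 cells (20000/well) in phenol red-free RPMI-1640 with 10% FBS are exposed to compound for 24 h at 37 °C, 5% CO2. Alamar Blue (resazurin) is then added for 4 h and fluorescence read at ex 540/em 590 nm.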

[5] = average values if tested multiple times

Sequence of FGFR1 (h) (P11362 22-822): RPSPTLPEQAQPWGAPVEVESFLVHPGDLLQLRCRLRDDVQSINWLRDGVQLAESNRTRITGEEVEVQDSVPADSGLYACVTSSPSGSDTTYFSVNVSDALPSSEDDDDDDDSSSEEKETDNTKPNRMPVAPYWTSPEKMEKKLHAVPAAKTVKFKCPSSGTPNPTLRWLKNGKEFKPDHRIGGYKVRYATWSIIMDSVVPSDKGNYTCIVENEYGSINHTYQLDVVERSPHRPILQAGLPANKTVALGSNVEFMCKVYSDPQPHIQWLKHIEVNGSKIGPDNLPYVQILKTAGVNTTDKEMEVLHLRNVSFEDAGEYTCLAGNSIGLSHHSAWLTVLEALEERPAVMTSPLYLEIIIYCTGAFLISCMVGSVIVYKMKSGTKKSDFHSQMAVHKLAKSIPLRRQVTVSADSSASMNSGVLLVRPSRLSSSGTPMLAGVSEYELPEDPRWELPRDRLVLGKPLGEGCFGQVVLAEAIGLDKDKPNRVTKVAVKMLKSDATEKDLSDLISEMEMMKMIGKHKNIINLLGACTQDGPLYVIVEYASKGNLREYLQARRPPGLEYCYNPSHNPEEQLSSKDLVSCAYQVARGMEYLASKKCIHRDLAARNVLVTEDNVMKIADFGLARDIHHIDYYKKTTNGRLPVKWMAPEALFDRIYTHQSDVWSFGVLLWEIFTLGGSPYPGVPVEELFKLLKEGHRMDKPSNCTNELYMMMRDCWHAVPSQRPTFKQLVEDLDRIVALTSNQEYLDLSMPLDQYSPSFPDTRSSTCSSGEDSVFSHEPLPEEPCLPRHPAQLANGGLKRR
Sequence of FGFR2 (h) (P21802 22-821): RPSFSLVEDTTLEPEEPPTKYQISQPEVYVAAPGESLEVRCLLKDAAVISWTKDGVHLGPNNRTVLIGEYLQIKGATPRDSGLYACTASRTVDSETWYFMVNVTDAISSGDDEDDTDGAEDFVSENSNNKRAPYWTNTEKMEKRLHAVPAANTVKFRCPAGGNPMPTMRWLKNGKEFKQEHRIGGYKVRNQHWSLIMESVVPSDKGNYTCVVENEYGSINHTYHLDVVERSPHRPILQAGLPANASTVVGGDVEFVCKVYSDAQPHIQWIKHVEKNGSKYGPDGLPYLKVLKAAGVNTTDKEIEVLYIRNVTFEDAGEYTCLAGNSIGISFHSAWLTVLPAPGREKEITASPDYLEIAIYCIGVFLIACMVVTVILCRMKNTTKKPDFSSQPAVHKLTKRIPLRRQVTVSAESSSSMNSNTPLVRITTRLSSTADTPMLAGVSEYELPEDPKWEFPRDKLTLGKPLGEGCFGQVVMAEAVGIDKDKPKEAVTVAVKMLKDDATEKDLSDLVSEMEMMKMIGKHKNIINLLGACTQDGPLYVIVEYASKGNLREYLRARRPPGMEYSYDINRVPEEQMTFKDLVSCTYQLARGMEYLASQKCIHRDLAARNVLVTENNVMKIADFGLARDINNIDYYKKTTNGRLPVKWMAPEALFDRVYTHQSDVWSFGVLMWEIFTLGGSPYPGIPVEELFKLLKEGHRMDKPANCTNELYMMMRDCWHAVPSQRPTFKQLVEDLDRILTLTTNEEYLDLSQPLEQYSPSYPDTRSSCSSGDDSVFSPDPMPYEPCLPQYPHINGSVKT
T1 sequence (P35968 whole entry, change not shown): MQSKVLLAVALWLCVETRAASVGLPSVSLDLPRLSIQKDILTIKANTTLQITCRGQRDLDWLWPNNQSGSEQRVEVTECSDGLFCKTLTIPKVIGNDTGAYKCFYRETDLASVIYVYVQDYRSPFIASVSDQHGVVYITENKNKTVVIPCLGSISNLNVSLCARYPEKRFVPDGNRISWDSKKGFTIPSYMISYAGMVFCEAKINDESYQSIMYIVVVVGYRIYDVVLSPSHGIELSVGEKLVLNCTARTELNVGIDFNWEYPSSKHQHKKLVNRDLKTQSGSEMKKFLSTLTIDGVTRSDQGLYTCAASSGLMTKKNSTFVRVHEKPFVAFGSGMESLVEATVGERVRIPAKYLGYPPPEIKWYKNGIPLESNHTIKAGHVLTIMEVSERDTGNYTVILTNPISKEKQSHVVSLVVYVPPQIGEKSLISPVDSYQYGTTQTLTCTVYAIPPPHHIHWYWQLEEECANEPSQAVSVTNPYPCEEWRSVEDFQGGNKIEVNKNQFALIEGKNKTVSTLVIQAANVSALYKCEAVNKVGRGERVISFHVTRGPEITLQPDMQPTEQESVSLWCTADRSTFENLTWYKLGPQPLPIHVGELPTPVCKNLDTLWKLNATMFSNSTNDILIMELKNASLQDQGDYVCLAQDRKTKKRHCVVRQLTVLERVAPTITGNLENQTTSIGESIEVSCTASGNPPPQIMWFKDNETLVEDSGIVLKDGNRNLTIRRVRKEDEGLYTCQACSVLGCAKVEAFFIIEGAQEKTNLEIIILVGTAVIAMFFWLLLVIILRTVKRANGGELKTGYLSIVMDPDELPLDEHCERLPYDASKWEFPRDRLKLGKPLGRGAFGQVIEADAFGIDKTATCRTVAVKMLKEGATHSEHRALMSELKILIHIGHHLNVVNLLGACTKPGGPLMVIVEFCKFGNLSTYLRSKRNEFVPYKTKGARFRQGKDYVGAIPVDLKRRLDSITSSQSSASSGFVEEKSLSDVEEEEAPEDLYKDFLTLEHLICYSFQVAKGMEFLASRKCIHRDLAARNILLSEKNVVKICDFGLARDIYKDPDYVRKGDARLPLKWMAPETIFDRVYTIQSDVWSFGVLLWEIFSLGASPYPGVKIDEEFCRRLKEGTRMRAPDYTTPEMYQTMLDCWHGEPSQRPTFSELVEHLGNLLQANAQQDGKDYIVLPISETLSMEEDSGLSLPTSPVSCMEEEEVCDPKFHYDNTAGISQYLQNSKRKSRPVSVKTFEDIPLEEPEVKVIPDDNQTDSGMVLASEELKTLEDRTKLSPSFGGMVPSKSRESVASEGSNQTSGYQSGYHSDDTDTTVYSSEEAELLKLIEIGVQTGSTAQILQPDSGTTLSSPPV
Sequence of KDR (h) (P35968 20-1356): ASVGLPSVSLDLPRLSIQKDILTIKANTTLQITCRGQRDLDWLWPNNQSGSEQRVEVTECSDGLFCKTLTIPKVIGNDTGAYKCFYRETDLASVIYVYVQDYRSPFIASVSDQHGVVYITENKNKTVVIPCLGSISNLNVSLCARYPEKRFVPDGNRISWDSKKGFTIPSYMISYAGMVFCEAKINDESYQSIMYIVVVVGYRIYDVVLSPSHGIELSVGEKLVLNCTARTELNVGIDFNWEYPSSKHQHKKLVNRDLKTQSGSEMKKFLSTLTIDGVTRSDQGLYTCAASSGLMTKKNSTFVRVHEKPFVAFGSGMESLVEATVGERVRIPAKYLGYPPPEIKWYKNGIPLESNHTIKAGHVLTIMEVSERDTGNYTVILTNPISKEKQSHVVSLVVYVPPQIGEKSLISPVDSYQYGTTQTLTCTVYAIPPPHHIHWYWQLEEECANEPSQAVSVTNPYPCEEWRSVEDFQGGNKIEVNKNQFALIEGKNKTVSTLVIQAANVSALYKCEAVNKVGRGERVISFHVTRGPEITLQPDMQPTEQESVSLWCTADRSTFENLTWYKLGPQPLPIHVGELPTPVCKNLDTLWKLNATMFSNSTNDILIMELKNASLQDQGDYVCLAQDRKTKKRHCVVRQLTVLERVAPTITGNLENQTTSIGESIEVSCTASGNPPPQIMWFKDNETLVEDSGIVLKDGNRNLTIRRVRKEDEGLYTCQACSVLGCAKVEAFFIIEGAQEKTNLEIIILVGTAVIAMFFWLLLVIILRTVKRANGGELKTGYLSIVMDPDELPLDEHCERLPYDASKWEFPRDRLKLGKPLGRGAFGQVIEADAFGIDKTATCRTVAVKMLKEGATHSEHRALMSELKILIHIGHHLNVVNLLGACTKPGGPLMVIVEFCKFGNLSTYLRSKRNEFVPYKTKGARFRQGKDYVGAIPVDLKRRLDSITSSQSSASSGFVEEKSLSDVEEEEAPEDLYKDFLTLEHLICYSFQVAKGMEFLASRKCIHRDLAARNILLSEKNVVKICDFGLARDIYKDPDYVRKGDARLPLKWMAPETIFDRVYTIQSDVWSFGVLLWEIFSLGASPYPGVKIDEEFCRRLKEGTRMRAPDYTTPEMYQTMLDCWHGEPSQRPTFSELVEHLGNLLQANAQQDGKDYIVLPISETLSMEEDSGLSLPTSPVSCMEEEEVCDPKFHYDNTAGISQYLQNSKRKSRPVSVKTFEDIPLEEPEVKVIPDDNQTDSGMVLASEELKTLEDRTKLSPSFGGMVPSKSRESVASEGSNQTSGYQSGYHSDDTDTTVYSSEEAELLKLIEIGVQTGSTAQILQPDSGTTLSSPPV
Sequence of Ba/F3-FGFR4-transfected cells (P22455 whole entry, change not shown): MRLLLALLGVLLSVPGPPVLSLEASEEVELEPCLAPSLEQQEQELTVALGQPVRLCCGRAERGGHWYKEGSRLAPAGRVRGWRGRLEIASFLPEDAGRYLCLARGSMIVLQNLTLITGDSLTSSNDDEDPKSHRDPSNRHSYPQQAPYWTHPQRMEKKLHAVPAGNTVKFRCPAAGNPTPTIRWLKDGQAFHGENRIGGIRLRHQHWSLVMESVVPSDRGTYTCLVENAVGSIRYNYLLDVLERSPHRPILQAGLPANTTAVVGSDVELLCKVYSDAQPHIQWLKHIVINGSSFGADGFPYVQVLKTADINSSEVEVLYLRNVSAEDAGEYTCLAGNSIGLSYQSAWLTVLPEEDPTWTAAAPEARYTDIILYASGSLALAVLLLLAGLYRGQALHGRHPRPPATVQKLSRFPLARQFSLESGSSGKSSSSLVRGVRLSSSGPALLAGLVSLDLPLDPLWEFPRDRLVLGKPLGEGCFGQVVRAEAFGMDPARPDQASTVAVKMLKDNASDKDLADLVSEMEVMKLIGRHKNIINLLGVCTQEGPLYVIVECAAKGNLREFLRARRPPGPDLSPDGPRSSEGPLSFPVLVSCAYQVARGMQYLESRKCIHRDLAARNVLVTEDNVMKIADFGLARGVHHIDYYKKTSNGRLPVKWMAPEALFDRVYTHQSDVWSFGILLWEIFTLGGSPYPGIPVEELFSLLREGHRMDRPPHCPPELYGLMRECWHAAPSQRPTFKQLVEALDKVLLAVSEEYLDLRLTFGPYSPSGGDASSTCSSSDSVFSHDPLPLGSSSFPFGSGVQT

Compound | IC50 (FGFR1 (h); [5]) [nM] | IC50 (FGFR2 (h); [5]) [nM] | IC50 (KDR (h); [5]) [nM] | IC50 [1] [nM] | BAF3-KDR (MIN IL3) pIC50 [2] | IC50 [3] [nM] | BAF3-FGFR4 pIC50 [4] | IC50 (FGFR1 (h)) [nM] | IC50 (FGFR2 (h)) [nM] | IC50 (KDR (h)) [nM]
COc1cc(O)cc(N(Cc2ncc[nH]2)c2ccc3ncc(-c4cnn(C)c4)nc3n2)c1F [Compound 95] | 0.417 | 0.955 | 2.75 | > 9330 | 6.85 | > 10000 | 8.03 | – | – | –
COc1cc(OC)c(Cl)c(N(C[C@H]2CCC(=O)N2)c2ccc3ncc(-c4cnn(C)c4)nc3n2)c1Cl [Compound 97] | 5.25 | 6.61 | 95.5 | > 10000 | 5.35 | > 10000 | 5.95 | – | – | –
COc1cc(OC)c(Cl)c(N(Cc2ncc[nH]2)c2ccc3ncc(-c4cnn(C)c4)nc3n2)c1Cl [Compound 98] | ~3.89 | 4.37 | 16.6 | > 10000 | 6.19 | > 10000 | 6.56 | – | – | –
COc1cc(OC)c(F)c(N(Cc2ncc[nH]2)c2ccc3ncc(-c4cnn(Cc5ncc[nH]5)c4)nc3n2)c1 [Compound 100] | 1.29 | 2.14 | 8.13 | > 10000 | 5.41 | > 10000 | 6.99 | – | – | –
COc1cc(O)cc(N(Cc2ncc[nH]2)c2ccc3ncc(-c4cnn(C)c4)nc3n2)c1 [Compound 103] | 0.339 | 0.741 | 5.37 | > 10000 | 6.40 | > 10000 | ~7.43 | – | – | –
COc1cc(OC)c(F)c(N(Cc2nc3c([nH]2)CCNC3)c2ccc3ncc(-c4cnn(C)c4)nc3n2)c1 [Compound 104] | 2.57 | 3.24 | 26.3 | > 10000 | 5.10 | > 10000 | 5.74 | – | – | –
CNCCN(c1ccc2ncc(-c3cn[nH]c3)nc2n1)c1c(F)c(OC)cc(OC)c1F [Compound 106] | 1.86 | 2.14 | 25.1 | > 10000 | 5.59 | > 10000 | ~6.65 | – | – | –
COc1cc(OC)c(F)c(N(Cc2nc[nH]c2C)c2ccc3ncc(-c4cnn(C)c4)nc3n2)c1 [Compound 109] | 1.15 | 2.29 | 20 | > 10000 | ~6.01 | > 10000 | ~7.05 | – | – | –
COc1cc(OC)c(F)c(N(Cc2ccnn2C)c2ccc3ncc(-c4cnn(C)c4)nc3n2)c1 [Compound 113] | 2 | 2.19 | 51.3 | > 10000 | 5.33 | > 10000 | 6.63 | – | – | –
COc1cc(/N=c2\ccc3ncc(-c4cnn(C)c4)nc3n2Cc2ccnn2C)c(F)c(OC)c1 [Compound 114] | 0.933 | 1.62 | 4.9 | > 10000 | ~7.05 | > 10000 | 7.14 | – | – | –
COc1cc(/N=c2\ccc3ncc(-c4cnn(C)c4)nc3n2Cc2cc[nH]n2)c(F)c(OC)c1 [Compound 115] | 0.708 | 1.58 | 5.89 | > 10000 | 6.58 | > 10000 | ~7.59 | – | – | –
COc1cc(OC)c(F)c(N(Cc2cc[nH]n2)c2ccc3ncc(-c4cnn(C)c4)nc3n2)c1 [Compound 118] | 0.759 | 1.32 | 6.46 | > 10000 | 6.60 | > 10000 | ~7.56 | – | – | –
COc1cc(/N=c2\ccc3ncc(-c4cnn(C)c4)nc3n2CCCN2CCCC2=O)c(F)c(OC)c1 [Compound 119] | – | – | – | > 3980 | ~6.52 | > 3980 | 7.28 | 1.41 | 1.86 | 6.17
COc1cc(OC)c(F)c(N(CCCN2CCCC2=O)c2ccc3ncc(-c4cnn(C)c4)nc3n2)c1 [Compound 120] | – | – | – | > 10000 | 6.10 | > 10000 | 6.84 | 4.17 | 3.02 | 19.1
CNCCN(c1ccc2ncc(-c3cnn(C)c3)nc2n1)c1c(F)c(O)cc(OC)c1F [Compound 122] | – | – | – | > 10000 | <5 | > 10000 | 5.67 | 2.82 | 3.31 | 50.1
COc1cc(/N=c2\ccc3ncc(-c4cnn(C)c4)nc3n2CC2COC(=O)N2)c(F)c(OC)c1 (stereo not drawn) [Compound 123] | – | – | – | > 10000 | 5.53 | > 10000 | 6.62 | 1.35 | 1.26 | 21.9
COc1cc(OC)c(F)c(N(CC2COC(=O)N2)c2ccc3ncc(-c4cnn(C)c4)nc3n2)c1 (stereo not drawn) [Compound 124] | – | – | – | > 10000 | 5.49 | > 10000 | ~6.64 | 3.09 | 2.75 | 60.3
COc1cc(OC)c(F)c(N(Cc2cn[nH]c2)c2ccc3ncc(-c4cnn(C)c4)nc3n2)c1 [Compound 125] | – | – | – | > 10000 | 6.21 | > 10000 | ~7.15 | 0.851 | 0.794 | 8.71
COc1cc(OC)c(F)c(N(Cc2ccn(C)n2)c2ccc3ncc(-c4cnn(C)c4)nc3n2)c1 [Compound 128] | – | – | – | > 10000 | 6.34 | > 10000 | 7.12 | 1.32 | 1.55 | 7.94
COc1cc(OC)cc(N(CC2CCCCO2)c2ccc3ncc(-c4cnn(C)c4)nc3n2)c1 (stereo not drawn) [Compound 129] | – | – | – | > 10000 | 5.33 | > 10000 | 6.36 | 3.47 | 2.4 | 58.9
COc1cc(OC)c(F)c(N(Cc2nccn2C)c2ccc3ncc(-c4cnn(C)c4)nc3n2)c1 [Compound 131] | – | – | – | > 10000 | 5.50 | > 10000 | 6.62 | 2.14 | 2.63 | 19.1
COc1cc(OC)c(F)c(N(Cc2nncn2C)c2ccc3ncc(-c4cnn(C)c4)nc3n2)c1 [Compound 132] | – | – | – | > 10000 | 5.38 | > 10000 | ~6.13 | 5.62 | 3.02 | 42.7
COc1cc(OC)cc(N(CCCN2CCCC2=O)c2ccc3ncc(-c4cnn(C)c4)nc3n2)c1 [Compound 134] | – | – | – | > 10000 | 5.20 | > 10000 | 5.99 | 8.71 | 3.09 | 35.5
COc1cc(OC)c(F)c(N(Cc2nc(C)c[nH]2)c2ccc3ncc(-c4cnn(C)c4)nc3n2)c1 [Compound 135] | – | – | – | > 10000 | 6.64 | > 10000 | 8.05 | 1.17 | 1.78 | 8.71
